Measurements as given in article PMC9000575, “Solution Equilibrium Studies on Salicylidene Aminoguanidine Schiff Base Metal Complexes: Impact of the Hybridization with L-Proline on Stability, Redox Activity and Cytotoxicity” (Molecules, 2022).
Marks after values point to notes of the source that are not given here.

Legend:
Format in all cases: physicochemical
[1] = proton dissociation constants by UV-vis spectrophotometric titration; settings: for pK1 (H2L+) / pK2 (HL): SISC; for pK2 (H2L+) / pK3 (HL): Pro-SISC-Me
Procedure: An Agilent Cary 8454 diode array spectrophotometer (Agilent Technologies, Santa Clara, CA, USA) was used to record the UV-vis spectra at an interval of 200–800 nm. The path length was 1 or 2 cm. Spectrophotometric titrations were performed in water or in 30% (v/v) DMSO/H2O on samples containing the ligands at 50 μM–1 mM concentration, in the pH range from 1.0 to 12.5 in the absence or in the presence of 1 or 0.5 or 0.33 equiv. metal ions. Ka values of the ligands and the UV-vis spectra of the individual species were calculated by the computer program PSEQUAD [45].

[2] = proton dissociation constants by 1H NMR titration
Procedure: ^1H NMR spectra recorded for SISC in 30% (v/v) d6-DMSO/H2O (Figure S3) clearly show two deprotonation steps and all the CH protons are sensitive to the changes of the pH. Similarly, the changes in the chemical shifts of the peaks of the aromatic CH and the CH=N protons indicate two steps in the ^1H NMR spectra of Pro-SISC-Me recorded in water (Figure 3a), thus two pKa values were calculated (pK2, pK3 in Table 1). However, this is only true for the major species identified as the E isomer (Figure 3b), while for the other isomer (Z, Figure 3c) only one pKa (7.55 ± 0.02) could be determined. The E and Z geometric isomers are the consequence of the C=N double bond. […] Based on the integrals of the CH=N peaks, the fraction of the E isomer is 86% at pH < 6.5, and it is decreased to 82% reaching pH 11.5; however, the appearance of further minor peaks at pH > 9.8 indicates the presence of other species in low fraction. The same picture is seen when the changes of the CH3 peaks are considered (Figure S4), and only the peak of the CH-COOH proton was sensitive to the first deprotonation process at pH < 3, which confirms that pK1 of Pro-SISC-Me applies to COOH.
The ^1H NMR studies for the ligands were carried out on a Bruker Ultrashield 500 Plus instrument (Billerica, MA, USA). DSS was used as an internal NMR standard and WATERGATE water suppression pulse scheme was used. Spectra were recorded in 10% (v/v) D2O/H2O or in 30% (v/v) DMSO-d6/H2O solvent mixtures in a concentration of 1 mM, respectively, at ionic strength of 0.10 M (KCl).

[3] = stability constants of Cu(II) complexes from deconvolution of EPR spectra; settings: water, room temperature, I = 0.10 M (KCl)
Procedure: All EPR spectra were recorded with a BRUKER EleXsys E500 spectrometer (microwave frequency 9.54 GHz, microwave power 13 mW, modulation amplitude 5 G, modulation frequency 100 kHz, Bruker BioSpin Corporation, Billerica, MA, USA) at 77 K for the Cu(II)—SISC complexes and at room temperature for the Cu(II)—Pro-SISC-Me species. EPR spectra were recorded at different pH values at two metal-to-ligand concentration ratios: 0.25 mM Cu(II) and 0.25 mM or 0.50 mM SISC in 30% DMSO/water solution, and 1.0 mM Pro-SISC-Me and 1.0 mM or 0.5 mM Cu(II) in water. The ionic strength was adjusted with KCl (I = 0.1 M). KOH solution was added to the stock solution to change the pH between pH = 2.5–12.5, which was measured with a Radiometer PHM240 pH/ion Meter equipped with a Metrohm 6.0234.100 glass electrode. The isotropic EPR spectra were recorded at room temperature in a circulating system, and a Heidolph Pumpdrive 5101 peristaltic pump was used to circulate the solution from the titration vessel through a capillary tube into the cavity of the instrument. For the anisotropic EPR spectra, a pH titration was performed outside of the cavity and at selected pH values, and 200 μL samples were transferred from the titration vessel into EPR tubes and the spectra were recorded in a Dewar containing liquid nitrogen.
The anisotropic EPR spectra were analyzed with the EPR program. […]

[4] = Pro-SISC-Me, H2O, major species (E isomer)

Structure (SMILES) | pK1 (H2L+) ([1]; 30% DMSO/H2O) | pK2 (HL) ([1]; 30% DMSO/H2O) | pK1 (H2L+) ([1]; H2O) | pK2 (HL) ([1]; H2O) | pK1 (H2L+) ([2]; SISC, 30% DMSO/H2O) | pK2 (HL) ([2]; SISC, 30% DMSO/H2O) | pK2 (H2L+) ([1]; 30% DMSO/H2O) | pK3 (HL) ([1]; 30% DMSO/H2O) | pK2 (H2L+) ([1]; H2O) | pK3 (HL) ([1]; H2O) | logβ [CuLH−1] [3] | logβ [CuL]+ [3] | pK1 (H3L2+) [2, 4] | pK2 (H2L+) [2, 4] | pK3 (HL) [2, 4] | pKa ([2]; water, only one pKa could be determined, read-out: pKa of the minor (Z) isomer)
N=C(N)NN=Cc1ccccc1O [SISC, 2-(2-hydroxybenzylidene)hydrazinecarboximidamide] | 7.56 ± 0.03 | 10.67 ± 0.03 | 7.64 ± 0.03 | 10.12 ± 0.03 | 7.68 ± 0.03 | 10.72 ± 0.03 | – | – | – | – | – | – | – | – | – | –
Cc1cc(C=NNC(=N)N)c(O)c(CN2CCCC2C(=O)O)c1 (stereo not shown) [Pro-SISC-Me] | – | – | – | – | – | – | 7.07 ± 0.03 | 9.84 ± 0.03 | 7.30 ± 0.03 | 9.67 ± 0.03 | 6.50 | 14.78 | ≤2.5 ^c | 7.25 ± 0.03 ^c | 9.75 ± 0.03 ^c | 7.55
